Measurements as given in paper PMC7705112, “A Novel, Broad-Acting Peptide Inhibitor of Double-Stranded DNA Virus Gene Expression and Replication” (Frontiers in Microbiology, 2020).
“Also recorded” adds a separate entry of the source. Like-named read-outs stand apart in the source and are kept apart here. Peptide text beside a SMILES is read from it.

Tests used:
[1] = system: HSV-1 F, HSV-1 703, HSV-1 601; type: cell-based, herpes simplex virus; settings: for EC50: Figure 8A, triplicate wells
[2] = system: Varicella zoster virus; assay: VZV cytopathic effect; settings: human fibroblasts, pre-treated, infected 1 h, three days, microscopy
[3] = system: HEK293 cells; assay: Cell viability, CellTiter-Glo 2.0; type: cell-based; settings: 96 h incubation; Figure 2B, triplicate wells
Protocol: (§1) Vero, MRC-5, and CV-1 cells were cultured in Dulbecco’s Modified Eagle Medium (DMEM; ThermoFisher, Waltham, MA, United States) and Jurkat cells were cultured in RPMI 1640 medium containing 10% fetal calf serum, 100 U/ml penicillin, and 0.1 mg/ml streptomycin (ThermoFisher). HEK293 and NIH/3T3 cells were adapted to growth in CO2-independent medium supplemented with 10% fetal calf serum, 2 mM glutamine, and 1% antibiotic-antimycotic (ThermoFisher) and cultivated in a humidified atmosphere at 37°C. […] Viability was analyzed using CellTiter-Glo® 2.0 Assay according to the manufacturer’s protocol (Promega). […] Cytotoxicity was analyzed using MultiTox-Glo Multiplex Cytotoxicity Assay according to the manufacturer’s protocol (Promega).

[4] = system: Baculovirus-Luc; settings: for EC50: read-out: EC50, inhibition of reporter gene expression
[5] = system: HEK293 cells; assay: Morphology of HEK293 cells; type: cell-based
[6] = system: adenovirus type 5; type: cell-based
Protocol: Luciferase from cell lysates was recorded 24 hours after infection. Results shown are luciferase levels expressed as % of control from duplicate wells. Luciferase was detected using Luciferase Assay System as described in Materials & Methods of the main article.

[7] = system: adenovirus 5; type: cell-based
[8] = system: NIH/3T3 cells; assay: Cytotoxicity, MultiTox-Glo Multiplex; type: cell-based; settings: 72 h; Figure 4B, triplicates
Protocol: as §1

[9] = system: VZV transcripts; assay: VZV transcripts by real-time PCR; type: cell-based, varicella zoster virus; settings: lysates of infected cells, normalized to GAPDH mRNA; Figure S8; read-out: EC50, reduction of VZV transcripts
Protocol: VZV transcripts were analysed from lysates of infected cells by real-time PCR using ViroReal® VZV (RTGM20V; Ingenetix GmbH, Austria) and normalized to GAPDH mRNA.

[10] = system: RSV RNA (nucleocapsid protein gene); assay: RSV RNA by real-time PCR; type: cell-based, Respiratory syncytial virus
Protocol: Lysates from infected cells were examined for the presence of RSV RNA by real-time PCR using ViroReal® RSV (RTGM20V; Ingenetix GmbH, Austria) detecting the nucleocapsid protein gene of RSV and normalized to GAPDH mRNA. Calculated EC50 was 0.8 µM for TAT-I24 with 80% inhibition at the highest concentration (20 µM). Ribavirin was included as control.

[11] = system: vaccinia virus wild-type (strain Western Reserve); settings: Figure 9B
[12] = system: CV-1 cells
[13] = system: GAPDH mRNA, MRC-5 cells; assay: GAPDH mRNA in cells of the HCMV replicon assay; settings: at the highest concentration of 20 μM; no effect below
[14] = system: adenovirus 4; assay: Replicon assay (AAV-GLuc-3B), A549 cells, adenovirus 4; type: cell-based; settings: A549, MOI 1.0, at the concentrations used; Figures 3D, S3A
[15] = system: adenovirus 19a/64; assay: Replicon assay (AAV-GLuc-3B), A549 cells, adenovirus 19a/64; type: cell-based; settings: A549, MOI 1.0, at the concentrations used; Figures 3D, S3A
[16] = system: murine CMV (MCMV); type: cell-based, murine cytomegalovirus; settings: NIH/3T3, MOI 0.5, 72 h; Figures 4A, S4A
Protocol: NIH/3T3 cells were seeded at a density of 2 × 10^4 cells/well of a 96-well plate and allowed to attach overnight. On the next day, medium was removed and replaced by medium containing peptide dilutions. Then, murine CMV (MCMV) expressing firefly luciferase ([Trilling et al., 2011]) was added to the cells at a MOI of 0.5 with aid of centrifugal enhancement at 800 × g for a total of 30 min.
Virus adsorption was performed by addition of MCMV expressing luciferase at a MOI of 0.5 with centrifugal enhancement at +4°C and further incubation at +4°C for 60 min before removal of unabsorbed virus and three times washing of cells with cold medium. […] After 72 h incubation at 37°C, luciferase levels were determined from cell lysates as described above.
In another setting, NIH/3T3 cells were preincubated with TAT-I24 at concentrations of 1 and 10 μM for 1, 3, and 6 h followed by removal of peptide and 3x washing with medium. […] After 72 h, luciferase levels were determined from cell lysates as described above.
A, NIH/3T3 cells were seeded at a density of 2 x 10^4 cells/well of a 96-well plate and treated on the next day with increasing concentrations of I24 or TAT-I24 and infected with MCMV (MOI = 0.5). After 72 hrs, luciferase was determined from cell lysates. Results shown are luciferase levels expressed as % of control from duplicate wells. […] Plaque formation was determined after 5 days. […]

[17] = system: MCMV S-mCherry-SCP; assay: MCMV S-mCherry-SCP replication, microscopy; type: cell-based, murine cytomegalovirus; settings: NIH/3T3, various concentrations, 72 h; Figure 4C
Protocol: For analysis of MCMV replication, NIH/3T3 cells were seeded at a density of 2 × 10^4 cells/well of ibiTreat eight-well chambers (ibidi, Germany). On the next day, cells were treated with peptides and infected with murine CMV S-mCherry-SCP ([Bosse et al., 2012]) at a MOI 0.2 for 72 h before fixation with 5% formaldehyde and staining of nuclei with DAPI. Microscopic examination was performed using a Live Cell Video Microscope (Leica Microsystems).

[18] = system: HCMV TB40; assay: Replicon assay (AAV-GLuc-3B), MRC-5 cells, HCMV; type: cell-based, human cytomegalovirus; settings: MRC-5, 3 days; Figure 7A, TAT (48–60)
[19] = system: RSV (strain A2); assay: RSV cytopathic effect; type: cell-based, Respiratory syncytial virus A; settings: human Hep2 cells, pre-treated, infected 2 hrs at 37°C, 3 days, microscopy
Protocol: Respiratory syncytial virus (RSV): Human Hep2 cells were pre-treated with peptides and infected with cell-free RSV Stock (strain A2) for 2 hrs at 37°C. Medium was then removed and unabsorbed virus removed by washing. Medium containing peptide dilutions was then added to cells.

[20] = system: influenza A PR8; assay: Influenza A plaque-formation assay; settings: MDCK cells, three days, at the concentrations used
[21] = system: HSV-1 UL30 gene; assay: HSV-1 UL30 transcripts by real-time PCR; settings: cells from the replicon assay; Figures 8B, S6C
[22] = system: TZM-bl reporter cells; assay: Reporter gene expression in non-infected TZM-bl cells; settings: 48 hours after treatment; Figure S7
[23] = system: firefly luciferase reporter gene under control of the CMV promoter, HEK293 cells; assay: Luciferase expression from transfected CMV promoter plasmid (Superfect); type: cell-based; settings: HEK293, Figure 1D, TAT (47–57) alone
Protocol: Briefly, for one well of a 48-well plate, 100 ng DNA and 1 μl Superfect reagent were mixed by pipetting followed by addition of 12.5 μl of serum‐ and antibiotic-free medium. After brief vortexing and further incubation at room temperature for 15 min, 112.5 μl medium containing 10% fetal calf serum and antibiotics were added. For transfection in the presence of peptides, a transfection mixture of DNA, Superfect reagent, and serum-and antibiotic-free medium were prepared for the required number of wells. From this mixture, 25 μl aliquots were made and 0.5 μl peptides (10 mM each) added to each aliquot, vortexed briefly, and incubated for 15 min at room temperature. Then, 225 μl of medium containing 10% fetal calf serum was added and 125 μl applied per well of duplicate wells. For other types of multi-well plates, volumes were adapted according to the growth area of the wells.

Compound: Nc1nc2c(ncn2COCCO)c(=O)[nH]1 [ACV, aciclovir]
- sensitivity of isolate to aciclovir ([1]; HSV-1 isolate 703, Figure S6A): resistance
- CPE [2]: 4 µM

Compound: CC(C)C[C@H](NC(=O)[C@@H](N)CS)C(=O)N[C@@H](C)C(=O)N[C@@H](Cc1ccccc1)C(=O)N[C@@H](Cc1ccc(O)cc1)C(=O)N[C@@H](C)C(=O)N[C@@H](CS)C(=O)N[C@@H](Cc1ccccc1)C(=O)N[C@@H](CS)C(=O)O [I24] (H-CLAFYACFC-OH)
- effects on HEK293 cell viability [3]: no effects

Compound: CC(C)C[C@H](NC(=O)[C@H](CS)NC(=O)[C@H](Cc1ccc(O)cc1)NC(=O)[C@@H]1CCCN1C(=O)[C@H](CC(=O)O)NC(=O)[C@H](CCC(=O)O)NC(=O)[C@@H](NC(=O)[C@H](CCCCN)NC(=O)[C@H](CCCNC(=N)N)NC(=O)[C@H](CCCCN)NC(=O)[C@H](CCCCN)NC(=O)[C@H](CCCCN)NC(=O)[C@@H]1CCCN1)C(C)C)C(=O)N[C@@H](C)C(=O)N[C@@H](Cc1ccccc1)C(=O)N[C@@H](Cc1ccc(O)cc1)C(=O)N[C@@H](C)C(=O)N[C@@H](CS)C(=O)N[C@@H](Cc1ccccc1)C(=O)N[C@@H](CS)C(=O)O [SV40 NLS-I24] (H-PKKKRKVEDPYCLAFYACFC-OH)
- EC50 ([4]; HEK293, Figure 2E, triplicate wells): 1 µM

Compound: CC(C)C[C@H](NC(=O)[C@H](CS)NC(=O)[C@H](CCC(N)=O)NC(=O)[C@@H]1CCCN1C(=O)[C@@H]1CCCN1C(=O)[C@H](CCCNC(=N)N)NC(=O)[C@H](CCCNC(=N)N)NC(=O)[C@H](CCCNC(=N)N)NC(=O)[C@H](CCC(N)=O)NC(=O)[C@H](CCCNC(=N)N)NC(=O)[C@H](CCCNC(=N)N)NC(=O)[C@H](CCCCN)NC(=O)[C@H](CCCCN)NC(=O)[C@H](CCCNC(=N)N)NC(=O)CN)C(=O)N[C@@H](C)C(=O)N[C@@H](Cc1ccccc1)C(=O)N[C@@H](Cc1ccc(O)cc1)C(=O)N[C@@H](C)C(=O)N[C@@H](CS)C(=O)N[C@@H](Cc1ccccc1)C(=O)N[C@@H](CS)C(=O)O [TAT-I24] (H-GRKKRRQRRRPPQCLAFYACFC-OH)
- effects on HEK293 cell viability [3]: no effects
- concentrations at which some morphological changes were observed [5]: > 10 μM
- EC50 ([6]; HEK293, adenovirus-GFP-Luc, 24 h, single value of Figure 3A (duplicate wells), read-out: EC50, inhibition of reporter gene expression): 3.14 µM
- EC50 ([7]; A549, MOI 1.0, Gaussia luciferase after 24 h, Figure 3D, triplicate wells, read-out: EC50, inhibition of replication): 3.25 µM
- cytotoxic effects (viable and dead cells) [8]: No cytotoxic effects
- EC50 ([1]; HSV1 601 (aciclovir-sensitive isolate)): 0.37 µM
- EC50 ([1]; HSV1 703 (aciclovir-resistant isolate)): 0.91 µM
- EC50 ([1]; HSV-1 F): 1.93 µM
- EC50 [9]: 3.3 µM
- inhibition of RSV RNA ([10]; at the highest concentration (20 µM)): 80%
- EC50 ([10]; lysates from infected cells, normalized to GAPDH mRNA, Figure S9): 0.8 µM
- inhibition of reporter gene expression ([4]; HEK293, peptide added together with baculovirus, 24 h, Figure 2A): > 95%
- EC50 ([4]; HEK293, MOI 5, peptide added together with baculovirus, 24 h, Figure 2A, duplicate wells): 0.17 µM
- EC50 ([11]; read-out: EC50, inhibition of VACV wt replication, CV-1, MOI 0.2, 1 h preincubation, 24 h, TCID50, two independent experiments): 0.79 µM
- effect on mock infected CV-1 cells [12]: No effect
- effects on CV-1 cell attachment ([12]; at higher dosages (20 and 6.6 μM)): some effects
- GAPDH mRNA levels [13]: some reduction

Compound: GRKKRRQRRRPPQ [TAT]
- effects on HEK293 cell viability [3]: no effects
- effect on reporter gene expression ([6]; HEK293, 24 h, Figure 3A, TAT (48–60)): ineffective
- effect on replication ([7]; A549, Figure S3A): no effect
- effect on replication [14]: no effect
- effect on replication [15]: no effect
- effect on luciferase expression [16]: only partially decreased
- cytotoxic effects (viable and dead cells) [8]: No cytotoxic effects
- cells producing virus particles [17]: cells producing virus particles were seen
- effect on HCMV replication [18]: no effect
- CPE [19]: no inhibition
- effect on VACV wt replication ([11]; CV-1): no effect
- CPE [2]: no inhibition
- Plaque assay [20]: no inhibition
- UL30 transcript levels normalized to 18S rRNA [21]: No effect; also recorded: does not affect
- effect on reporter gene expression in the absence of virus [22]: No inhibition

Compound: YGRKKRRQRRR [TAT (47–57)]
- effect on reporter gene expression [23]: ineffective
- effect on luciferase levels ([4]; HEK293, 24 h, Figure 2A (TAT = TAT (47–57))): did not affect

Compound: YGRKKRRQRRRC [TAT-C]
- inhibition of luciferase expression ([4]; HEK293, at the highest tested concentration of 20 μM, Figure 2E): only partial inhibition
